The test system of one experiment is TAPL E456A mutant. The experiment in a line: Peptide transport assay, E456A. Format: biochemical, mouse. The conditions noted are these: 9-mer 10 mM (sic), 3 mM ATP. Here is the method:
(§1) Proteoliposomes for peptide transport assays were prepared according to the protocol of Zhao et al., with some modifications. Briefly, E. coli polar lipid extract dissolved in chloroform was dried under a gentle stream of nitrogen. The thin film of lipids was placed under a desiccator overnight to completely remove residual chloroform and then hydrated in 1X PBS buffer pH 7.4 (137 mM NaCl, 2.7 mM KCl, 8 mM Na2HPO4, and 2 mM KH2PO4) with 10 mM MgCl2 and 5% (v/v) glycerol. After water bath sonication at 22 °C for 5 min (Powersonic 610, KLEENTEK), the lipid solution was extruded using a Mini-Extruder equipped with a polycarbonate membrane filter (200 nm pore) (Avanti Polar Lipids, Inc.) to obtain unilamellar vesicles, which were destabilized with 0.36% (w/v) DM. The DM-purified protein and lipid suspension were mixed in a 1:50 (w/w) ratio. After incubation at 4 °C for 2 h, the mixture was treated with Bio-Beads SM-2 resin (60 and 120 mg, see above) at 4 °C for a total of 18 h to remove detergent. The proteoliposomes were collected by centrifugation at 200,000×g for 1.5 h at 4 °C and resuspended in the buffer described above.
(§2) The peptide transport activity of ΔTMD0 was measured as described previously. Briefly, 50 μL of ΔTMD0-loaded proteoliposomes (~0.6 μg protein) were added into 200 μL reaction buffer containing 1X PBS pH 7.4, 3 mM ATP, and 10 mM MgCl2 in the presence or absence of 10 μM 5-IAF-labeled peptides. To investigate transport activity, the mixture was incubated at 37 °C for 10 min. The reaction was terminated by incubating the mixture for 20 min on ice. Proteoliposomes were collected by centrifugation at 200,000×g for 30 min and then washed twice with 1X PBS. The proteoliposomes were completely disrupted by adding 10% (w/v) SDS solution (final concentration, 2%). The transported peptide was measured using a microplate reader (Gemini XPS) with excitation at 485 nm and emission at 520 nm.

The target of another experiment is T1, TAPL Y405A mutant (Mus musculus, UniProt Q9JJ59, Y405A).
T1 construct: thrombin cleavage site (C); eGFP (C); 10XHis (C); made in house; host or cells: Trichoplusia ni High Five (Hi5) insect cells, baculovirus (pVL1393)
T1 sequence (Q9JJ59 143-762 Y405A): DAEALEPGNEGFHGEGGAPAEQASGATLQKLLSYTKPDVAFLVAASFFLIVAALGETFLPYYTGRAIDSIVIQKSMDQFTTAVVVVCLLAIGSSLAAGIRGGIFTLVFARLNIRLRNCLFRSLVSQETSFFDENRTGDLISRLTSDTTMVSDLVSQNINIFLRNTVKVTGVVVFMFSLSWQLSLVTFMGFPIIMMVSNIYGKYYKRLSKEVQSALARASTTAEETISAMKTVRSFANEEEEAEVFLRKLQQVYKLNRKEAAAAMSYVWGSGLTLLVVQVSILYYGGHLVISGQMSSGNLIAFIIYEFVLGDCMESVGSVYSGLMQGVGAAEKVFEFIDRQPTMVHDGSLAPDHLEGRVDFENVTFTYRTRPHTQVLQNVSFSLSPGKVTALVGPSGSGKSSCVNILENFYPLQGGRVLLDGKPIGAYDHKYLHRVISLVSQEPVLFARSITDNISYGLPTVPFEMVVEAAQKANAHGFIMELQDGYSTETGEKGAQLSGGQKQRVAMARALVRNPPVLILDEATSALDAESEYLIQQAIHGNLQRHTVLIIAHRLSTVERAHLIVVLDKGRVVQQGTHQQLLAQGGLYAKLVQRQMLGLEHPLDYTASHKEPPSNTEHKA
The experiment in a line: Peptide transport assay, Y405A. Format: biochemical. The conditions noted are these: 9-mer 10 mM (sic), 3 mM ATP. The procedure:
as §1, §2

Another experiment has as its system TAPL Q298A mutant. The experiment in a line: Peptide transport assay, Q298A. Format: biochemical, mouse. Particulars: 9-mer 10 mM (sic), 3 mM ATP. Here is the method:
as §1, §2

A further experiment deals with T2, mouse TAPL ΔTMD0 (Mus musculus, UniProt Q9JJ59).
T2 construct: thrombin cleavage site (C); eGFP (C); 10XHis (C); made in house; host or cells: Trichoplusia ni High Five (Hi5) insect cells, baculovirus (pVL1393)
T2 sequence (Q9JJ59 143-762): T1 sequence (Q9JJ59 143-762 Y405A) with A263Y
The experiment in a line: Peptide transport assay, ΔTMD0 proteoliposomes. The class given is biochemical. Particulars: for Transport activity: peptide 10 mM (sic). Here is the method:
as §1, §2

Positions count from the first letter of the chain named.

Turning to “RRYQNSTC^5-IAFL [9-mer, 5-IAF-labeled peptide of 9 residues (RRYQNSTC^5-IAFL)]”, the Transport activity is recorded as 48.9147% in the experiment on TAPL E456A mutant (replicate I); 53.6761% in the experiment on TAPL E456A mutant (replicate II); 40.3825% in the experiment on TAPL E456A mutant (replicate III); 47.6578% in the experiment with TAPL E456A mutant (wild-type = 100%, mean n=3); 18.1424% at TAPL Y405A mutant (replicate I); 19.1407% at TAPL Y405A mutant (replicate II). Besides, the Transport activity on TAPL Y405A mutant (replicate III) is reported as 12.1153%; on TAPL Y405A mutant (wild-type = 100%, mean n=3), 16.4661%; in the experiment with TAPL Q298A mutant (replicate I), 88.0035%; in the experiment with TAPL Q298A mutant (replicate II), 84.2917%; with TAPL Q298A mutant (replicate III), 85.5798%; in the experiment on TAPL Q298A mutant (wild-type = 100%, mean n=3) it was 85.9583%. Besides, the Transport activity was determined as 100% at mouse TAPL ΔTMD0 (+ 3 mM ATP, 9-mer + ATP set at 100%, 37 °C 10 min, mean n=3); 101.702% at mouse TAPL ΔTMD0 (+ 3 mM ATP, replicate I); 98.4079% on mouse TAPL ΔTMD0 (+ 3 mM ATP, replicate II); 99.8902% at mouse TAPL ΔTMD0 (+ 3 mM ATP, replicate III); 5.331% at mouse TAPL ΔTMD0 (no ATP, 9-mer + ATP set at 100%, mean n=3); 5.213% on mouse TAPL ΔTMD0 (no ATP, replicate I). Moreover, the Transport activity at mouse TAPL ΔTMD0 (no ATP, replicate II) was 5.414%; on mouse TAPL ΔTMD0 (no ATP, replicate III), 5.365%. For the same substance, the “peptide transport” value on mouse TAPL ΔTMD0 (ATP-dependent, 5-IAF-labeled peptides) is listed as “preferentially transported”.

(Values after paper PMC9532399, “The lysosomal transporter TAPL has a dual role as peptide translocator and phosphatidylserine floppase” (Nature Communications, 2022).)
